Columns and labels:
HCC2998 = assay: MTT growth inhibition assay, single agent; format: cell-based, human; settings: Homo sapiens, HCC 2998, 48 hours exposure, read-out: Antiproliferative effects IC50s (MTT assay)
Protocol: (§1) All cell lines were obtained from the ATCC (Rockville, Md.). Cells were grown as monolayers in RPMI medium supplemented with 10% fetal calf serum (Invitrogen, Cergy-Pontoise, France), 2 mM glutamine, 100 units/ml penicillin and 100 μg/ml streptomycin. All cells were split twice a week using trypsin/EDTA (0.25% and 0.02%, respectively; Invitrogen, Cergy-Pontoise, France) and seeded at a concentration of 2.5×10^4 cells/ml. All cell lines were tested regularly for Mycoplasma contamination by PCR using a Stratagene kit (La Jolla, Calif.).
(§2) The MTT assay was carried out as described previously (Hansen M B, Nielsen S E, Berg K. Re-examination and further development of a precise and rapid dye method for measuring cell growth/cell kill. J Immunol Methods. 1989 May 12; 119(2):203-10). In brief, cells were seeded in 96-well tissue culture plates at a density of 2×10^3 cells/well. Cell viability was determined after a 120-hour incubation, by the calorimetric conversion of yellow, water-soluble tetrazolium MTT (3-[4,5-dimethylthiazol-2-yl]-2,5-diphenyltetrazolium bromide; Sigma, Saint-Quentin Fallavier, France), into purple, water-insoluble formazan. This reaction is catalyzed by mitochondrial dehydrogenases and is used to estimate the relative number of viable cells (Mosmann, T, Rapid calorimetric assay for cellular growth and survival: application to proliferation and cytotoxicity assays. J Immunol Methods. 1983 Dec. 16; 65 (1-2):55-63). Cells were incubated with 0.4 mg/ml MTT for 4 hours at 37° C. After incubation, the supernatant was discarded, the cell pellet was resuspended in 0.1 ml of DMSO and the absorbance was measured at 560 nm using a microplate reader (Dynatech, Michigan). Wells with untreated cells or with drug-containing medium without cells were used as positive and negative controls, respectively. Growth inhibition curves were plotted as a percentage of untreated control cells.
(§3) The cells were seeded at 2×10^3 cells/well in 96-well plates and treated 24 hours later with increasing concentrations of CYC682. After incubation times of 1 hour, 24 hours or 48 hours, the cells were washed and post-incubated in drug-free medium for 72 hours. Growth inhibition was then determined by the MTT assay.

COLO205 = assay: MTT growth inhibition assay, single agent; format: cell-based, human; settings: Homo sapiens, COLO 205, 48 hours exposure, read-out: Antiproliferative effects IC50s (MTT assay)
Protocol: as §1, §2, §3

MDA-MB-435 = assay: MTT growth inhibition assay, single agent; format: cell-based, human; settings: Homo sapiens, 48 hours exposure, read-out: Antiproliferative effects IC50s (MTT assay)
Protocol: as §1, §2, §3

HOP92 = assay: MTT growth inhibition assay, single agent; format: cell-based, human; settings: Homo sapiens, HOP-92, 48 hours exposure, read-out: Antiproliferative effects IC50s (MTT assay)
Protocol: as §1, §2, §3

MCF7 = assay: MTT growth inhibition assay, single agent; format: cell-based, human; settings: Homo sapiens, 48 hours exposure, read-out: Antiproliferative effects IC50s (MTT assay)
Protocol: as §1, §2, §3

IGROV1 = assay: MTT growth inhibition assay, single agent; format: cell-based, human; settings: Homo sapiens, IGROV-1, 48 hours exposure, read-out: Antiproliferative effects IC50s (MTT assay)
Protocol: as §1, §2, §3

HCT116 = assay: MTT growth inhibition assay, single agent; format: cell-based, human; settings: Homo sapiens, HCT-116, 48 hours exposure, read-out: Antiproliferative effects IC50s (MTT assay)
Protocol: as §1, §2, §3

OVCAR1 = assay: MTT growth inhibition assay, single agent; format: cell-based, human; settings: Homo sapiens, 48 hours exposure, read-out: Antiproliferative effects IC50s (MTT assay)
Protocol: as §1, §2, §3

HT29 = assay: MTT growth inhibition assay, single agent; format: cell-based, human; settings: Homo sapiens, HT-29, 48 hours exposure, read-out: Antiproliferative effects IC50s (MTT assay)
Protocol: as §1, §2, §3

HOP62 = assay: MTT growth inhibition assay, single agent; format: cell-based, human; settings: Homo sapiens, HOP-62, 48 hours exposure, read-out: Antiproliferative effects IC50s (MTT assay)
Protocol: as §1, §2, §3

[1] = tested on: panel of human cancer cell lines; assay: Antiproliferative effects as single agent in a panel of human cancer cell lines (MTT); format: cell-based
Protocol: as §2, with “Wells with untreated cells or with drug-containing medium without cells were used as positive and negative controls, respectively. Growth inhibition curves were plotted as a percentage of untreated control cells.” left out
The cells were seeded at 2×10^3 cells/well in 96-well plates and treated 24 hours later with increasing concentrations of CYC682. […] Growth inhibition was then determined by the MTT assay. […]

colon cancer = settings: cited from earlier work
[2] = phase I, patients with a variety of cancers; cited from earlier work

Compound	IC50 (HCC2998) [µM]	IC50 (COLO205) [µM]	IC50 (MDA-MB-435) [µM]	IC50 (HOP92) [µM]	IC50 (MCF7) [µM]	IC50 (IGROV1) [µM]	IC50 (HCT116) [µM]	IC50 (OVCAR1) [µM]	IC50 (HT29) [µM]	IC50 (HOP62) [µM]	Cytotoxicity after 24 hour exposure ([1]; 24 hour exposure, panel of cell lines)	Anticancer activity in a model of colon cancer (colon cancer; in vivo)	Increasing survival and preventing spread of colon cancer metastases to the liver, versus gemcitabine or 5-FU (colon cancer; same colon cancer model)	Antiproliferative activity in panel ([1]; most cancer cell lines)	Dose limiting toxicity [2]	Tolerability in humans [2]
N#C[C@H]1[C@H](O)[C@@H](CO)O[C@H]1n1ccc(N)nc1=O [CNDAC, 1-(2-C-Cyano-2-deoxy-β-D-arabino-pentafuranosyl)-cytosine]	110 ± 21	8 ± 2	95 ± 13	23 ± 6	850 ± 60	89 ± 12	2.8 ± 0.6	> 900	160 ± 43	7 ± 1.8	not sufficient	–	–	–	–	–
CCCCCCCCCCCCCCCC(=O)Nc1ccn([C@@H]2O[C@H](CO)[C@@H](O)[C@@H]2C#N)c(=O)n1 [CYC682, 2′-cyano-2′-deoxy-N^4-palmitoyl-1-β-D-arabinofuranosylcytosine]	3.5 ± 0.8	5 ± 0.8	67 ± 14	38 ± 8	7 ± 1.8	6.5 ± 1.6	3 ± 0.6	45 ± 7	4.5 ± 0.7	6 ± 1.7	–	strong anticancer activity	superior	antiproliferative activity at micromolar concentrations	myelosuppression	well tolerated

— patent publication US20090274773A1, “ANTIPROLIFERATIVE COMBINATION COMPRISING CYC-682 AND A CYTOTOXIC AGENT” (Cyclacel Limited, priority 2005, published 2009)
